The target in this test is T1, His-PtcC (Ptc C-terminal tail) (Drosophila melanogaster, UniProt P18502).
T1 sequence (P18502 1105-1286): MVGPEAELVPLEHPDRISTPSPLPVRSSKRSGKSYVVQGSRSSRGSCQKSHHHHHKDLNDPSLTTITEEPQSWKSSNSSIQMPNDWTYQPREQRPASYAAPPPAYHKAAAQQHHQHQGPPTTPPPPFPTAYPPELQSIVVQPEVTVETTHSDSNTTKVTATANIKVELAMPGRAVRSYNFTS
The test can be described thus: solid-phase lipid dot blot. It is filed as binding. The settings on record: 2 ul of 50 uM lipid on PVDF; 1 ug/ml protein in PBS; 4 C overnight.

Where a name gives a salt, the structure may show the parent alone.

`CCCCCCCCCCCCCCCCCC(=O)OC[C@H](COP(=O)(O)O)OC(=O)CCCCCCCCCCCCCCCCC` [DSPA, 1,2-Distearoyl-sn-glycero-3-phosphate (sodium salt)]: the “solid-phase lipid dot blot” value was “His-PtcC interacted only with DSPA and DPPA, both of which are saturated forms of PA”.

For the origin of these results see paper PMC10661859 (Science signaling, 2023).
